Consider 101 compounds from PubChem BioAssay AID504765 (Sanford-Burnham Center for Chemical Genomics, 2011).

Active and inactive are the calls of the source. No rule for the calls is given here. Bounds are passed on as bounds.

The target of this assay is glucose-6-phosphate dehydrogenase-6-phosphogluconolactonase (Plasmodium falciparum 3D7). Nature of the assay: PfG6PD inhibitor potency, dose response, biochemical, fluorescence intensity (AID 504765). Particulars: Recombinant PfG6PD enzyme, fluorescence intensity (NADPH).

`O=c1c2cc(F)ccc2sn1-c1ccccc1Cl`: the IC50 (commonly the concentration that inhibits the measured activity by half) is 4.29 µM. With `O=C(CN1CCN(c2ccc(O)cc2)CC1)Nc1cc(S(=O)(=O)N2CCOCC2)ccc1Cl`, the IC50 result was “inactive”. The same measure for `Cc1cc(=O)[nH]c(N/N=C/c2c(C)nn(-c3ccccc3)c2Cl)n1`: 8.43 µM; for `O=C(CSc1nc2ccc(Cl)cc2[nH]1)NC1CCCc2ccccc21` (stereo unspecified): 15.6 µM. The same measure for `COc1ccc(OC)c2c1C(=O)C(Cl)=C(Cl)C2=O`: 4.64 µM. Consider `CC1(OC(=O)C2CCCC2)C(=O)C=C2C=C(c3ccsc3)N(CCc3c[nH]c4ccccc34)C=C2C1=O` (stereo unspecified), for which the IC50 is 4.97 µM. In the case of `CN1CCN(C(=O)c2sc(=S)n(-c3ccccc3)c2N)CC1`, the IC50 was 7.25 µM. For `Cc1ccc(-c2csc(NC(=O)c3ccc(Br)cc3)c2C(=O)O)cc1`, the IC50 was 6.25 µM. As for `Cc1cc(O)c(C(C)C)cc1N=Cc1ccc(N(C)C)cc1`, the IC50 was 4.4 µM. On to `O=C(CN1C(=O)C2C3C=CC(C3)C2C1=O)OCC(=O)c1ccc([N+](=O)[O-])cc1` (stereo unspecified), for which the IC50 is 9.71 µM. The same measure for `COc1ccc(Cl)cc1NC(=O)c1cccc([N+](=O)[O-])c1O`: 8.87 µM; for `COc1cc(C(=O)ON=C2C=C(C)C(=O)C(C)=C2)cc(OC)c1OC`: 5.09 µM; for `COc1ccc(CN(C)S(=O)(=O)c2nnc(NC(=O)c3ccc(C)cc3)s2)cc1OC`: 7.6 µM. Next, `COc1cc(/C=C2\SC(c3ccc(C)cc3)=NC2=O)cc(OC)c1O`: 9.38 µM; `NCCc1cc(O)c(O)cc1O`: 3.51 µM; `O=C1OC(c2ccc3ccccc3c2O)(c2ccc3ccccc3c2O)c2ccccc21`: 14.5 µM. Next, `CCN1/C(=C/C=C/C=C/C=C/c2sc3ccccc3[n+]2CC)Sc2ccccc21`: 7.54 µM; `CC(C)(C)c1ccc(O)c(O)c1`: “inactive”. Turning to `Cc1ccc2nc(SCC(=O)NC3CCCc4ccccc43)[nH]c2c1` (stereo unspecified), the IC50 was 9.6 µM. Regarding `CCN(CC)CCn1c2ccccc2c(=O)c2c(O)ccc(O)c21`, the IC50 was 2.39 µM. Next, `CCN(CC)c1nc(N)nc(NS(=O)(=O)c2ccc(Cl)cc2)n1`: 6.15 µM. Next, `N#Cc1ccc(Oc2cccc3cccnc23)c([N+](=O)[O-])c1`: 5.66 µM; `CCOc1ccccc1NC(=O)CCCc1nc2ccccc2c(=O)[nH]1`: 7.4 µM; `C#CCCc1cscc1/C=[N+](\[O-])c1ccc(C(=O)OCC)cc1`: 2.98 µM. As to `O=c1c2ccccc2sn1-c1ccccc1`, the IC50 was 1.15 µM. For the compound `CN(C)c1cccc2c1c(NC(=O)c1ccc(F)cc1)nn2C`, the IC50 is 19.2 µM.

Regarding `CC(=O)OCCCNc1cc(Sc2nc3ccccc3s2)c2nonc2c1[N+](=O)[O-]`, the IC50 is 3.92 µM.

With `COc1cc(C(=O)O/N=C2/C=C(C)C(=O)C=C2C)cc(OC)c1OC`, the IC50 is 11.6 µM. As for `C=CCc1c(C)[nH]c(=S)c(C#N)c1C`, the IC50 is 15.3 µM. Next, `O=c1c2cc(F)ccc2sn1-c1ccc(F)cc1`: 2.22 µM. As for `CCOC(=O)C1CCCN(C(=O)Cn2sc3nc(C)cc(C)c3c2=O)C1` (stereo unspecified), the IC50 was 3.15 µM. In the case of `Cc1ccsc1/C=N/NC(=O)c1cccc(S(=O)(=O)Nc2ccccc2Cl)c1`, the IC50 is 13.2 µM. Next, `COc1cc(N=c2ssnc2Cl)cc(OC)c1OC`: 15.5 µM. Next, `Cc1ccc(/C=C/C(=O)NCc2ccc(S(N)(=O)=O)cc2)o1`: 5.78 µM; `Cc1ccc2nc(SCC(=O)N/N=C/c3ccco3)cc(C)c2c1`: 10.3 µM.

With `CCN1CCN(c2nc(C)nc3c2sc(=S)n3C)CC1`, the IC50 was 15.1 µM.

Turning to `O=C(CCc1ccc(S(=O)(=O)N2CCOCC2)cc1)N/N=C/c1ccc(O)c(O)c1O`, the IC50 is 5.82 µM. In the case of `Oc1cc(CNCc2ccccc2)c(O)cc1CNCc1ccccc1`, the IC50 is 3.36 µM.

Regarding `COc1cc(/C=N/Nc2nncn2N)ccc1OCc1c(C)no[n+]1[O-]`, the IC50 was 8.92 µM. As to `O=C1C(c2cc(=O)c3ccccc3[nH]2)=C(O)c2ccccc21`, the IC50 was 8.25 µM.

Take `[O-]/[N+](=C\c1ccncc1)c1ccccc1`: the IC50 is 9.54 µM.

For `COc1ccc(-c2cn3cc(C)ccc3n2)cc1Br`, the IC50 was 9.91 µM. The same measure for `C/C(Cn1nnc([N+](=O)[O-])n1)=N\NC(=O)c1ccccc1O`: 7.39 µM; for `Oc1cc(-n2cccn2)c(O)cc1-n1cccn1`: 6.03 µM. Next, `CCC(=O)OCCNc1cc(Sc2nc3ccccc3s2)c2nonc2c1[N+](=O)[O-]`: 16.1 µM. The same measure for `COc1ccc(C2(CNC(=O)c3ccc(OC)c([N+](=O)[O-])c3)CCCCC2)cc1OC`: 8.33 µM; for `CCOc1ccccc1NS(=O)(=O)c1c(C)noc1C`: 9.95 µM; for `Cc1cc(C)c2c(=O)n(CC(=O)Nc3ccc(Br)c(C)c3)sc2n1`: 2.62 µM.

Consider `Cc1ccc(NC2=C(NC(=O)c3ccccc3)C(=O)c3ccccc3C2=O)cc1Cl`, for which the IC50 is 10.2 µM. Regarding `CCN1CCCC1CNC(=O)c1ccc2c(c1)NC(=O)/C(=C\c1ccccc1F)S2` (stereo unspecified), the IC50 was 1.96 µM. In the case of `COc1cc(N2C(=O)C=CC2=O)ccc1N1C(=O)C=CC1=O`, the IC50 was 4.43 µM. The same measure for `CC(C)c1nnc(NC(=O)c2sc3ccccc3c2Cl)s1`: 6.44 µM; for `CN=c1scc(C)n1/N=C/c1ccc(O)c(O)c1O`: 3.98 µM; for `N#CC1=C(N)Oc2c(O)cc3ccccc3c2C1c1ccsc1` (stereo unspecified): 6.71 µM. The same measure for `CC1=C(O)C(=O)C=C2C1=CC=C1C2(C)CCC2(C)C3CC(C)(C(=O)O)CCC3(C)CCC12C` (stereo unspecified): 16.7 µM. As for `N#C/C(C(=O)Nc1ccc(Cl)cc1)=C(/S)Nc1ccccc1`, the IC50 is 1.89 µM. With `Cc1ccc2nc3sc(C(=O)N4CCOCC4)c(N)c3cc2c1`, the IC50 was 12.9 µM.

In the case of `Nc1c(O)cccc1C(=O)O`, the IC50 is 1.44 µM.

As to `COc1c(O)c(O)c2oc(-c3ccccc3)cc(=O)c2c1OC`, the IC50 was 10.6 µM. Take `Cc1ccccc1OCC(=O)N/N=C/c1ccc(Sc2nc3ccccc3s2)o1`: the IC50 is 16.8 µM. For `COc1ccc(N2CSC3=C(C#N)C(c4ccc(OC)c(OC)c4)CC(=O)N3C2)c(OC)c1` (stereo unspecified), the IC50 was 5.21 µM.

Regarding `N#Cc1c(C#N)c(SSc2c(C#N)c(C#N)c(N)n2-c2ccccc2)n(-c2ccccc2)c1N`, the IC50 was 1.41 µM. The same measure for `COc1cc(NCc2ccccc2)c2ncn(Cc3ccccc3)c2c1`: > 80 µM (inactive); for `Cc1cc(C)nc(SSc2nc(C)cc(C)n2)n1`: 3.06 µM. The same measure for `Cn1c2ccccc2c2ccc3c(c21)C(=O)C=CC3=O`: > 80 µM (inactive).

For the compound `Cc1cccc(NC2=C(NC(=O)c3ccccc3)C(=O)c3ccccc3C2=O)c1`, the IC50 was 10.6 µM.

Regarding `O=C1Nc2cc(C(=O)NCCCN3CCCC3)ccc2S/C1=C\c1ccccc1`, the IC50 was 9.3 µM. The same measure for `C=CCOc1c(Cl)cc(CNc2ccc(N(C)C)cc2)cc1OC`: 9.87 µM; for `NCCNc1ccc(C(=O)N2c3ccccc3Sc3ccccc32)cc1[N+](=O)[O-]`: 13.3 µM; for `c1ccc(-c2nc(N3CCOCC3)s[n+]2-c2ccccc2)cc1`: 3.97 µM. Take `Cc1ccc(S(=O)(=O)N(C(=O)c2ccncc2)c2ccc(OC(=O)c3ccncc3)c3ccccc23)cc1`: the IC50 is 17.7 µM. The same measure for `COc1cccc(/C=N/NC(=O)CSc2cccc3cccnc23)c1`: 5.46 µM; for `COc1cc(NCc2ccccc2)c2ncn(C(C)C)c2c1`: “inactive”. Next, `CC1(OC(=O)C2CCCC2)C(=O)C=C2C=C(c3ccsc3)N(CC3CC3)C=C2C1=O` (stereo unspecified): 7.8 µM; `Nc1ccc(N(CCO)CCO)cc1`: 4.71 µM. As for `COc1ccc(S(=O)(=O)Nc2cc(SCC(=O)O)c(O)c3ccccc23)cc1`, the IC50 is 2.03 µM. The same measure for `Cc1cc(C)nc(NC(N)=NCCc2ccccc2)n1`: 15 µM; for `O=c1c2ccccc2sn1-c1cc(S(=O)(=O)N2CCOCC2)ccc1N1CCCC1`: 1.08 µM. Next, `O=C1NC(=S)NC(=O)C1=Cc1ccc(Br)s1`: 7.9 µM; `Cc1nc2ccc(Nc3nc4cc(S(=O)(=O)N5CCOCC5)ccc4o3)cc2s1`: “inactive”; `CCOc1cc(NCc2ccccc2)c2ncn(C(C)C)c2c1`: > 80 µM (inactive). In the case of `Cc1ccccc1-n1c(-c2ccc3ccccc3n2)n[nH]c1=S`, the IC50 was 14.4 µM. `CCOc1ccccc1C=NNC(=O)CCCCC(=O)NN=Cc1ccccc1OCC`: the IC50 is 7.77 µM. `c1ccc(OCc2nnc3n2N=C(c2ccccc2)CS3)cc1`: the IC50 is 17.1 µM.

With `O=S(=O)(Nc1cc(Sc2ncn[nH]2)c(O)c2ccccc12)c1ccccc1`, the IC50 was 0.741 µM. Next, `COc1cc(CNc2ccc(N3CCCC3)cc2)cc(Cl)c1OC`: 3.64 µM; `Cc1cc(O)c(-c2cc(O)c(C)cc2O)cc1O`: 1.88 µM. Next, `c1cc(CNc2ccc3c(c2)OCO3)ccn1`: “inactive”.

For the compound `O=C(Nc1ccc(N2CCCC2)cc1)c1cccc(-c2cc3ccccc3oc2=O)c1`, the IC50 result was “inactive”. Take `Cc1nnc(Sc2cc(NCCO)c([N+](=O)[O-])c3nonc23)s1`: the IC50 is 5.56 µM. The same measure for `COc1ccc(-n2sc3ccccc3c2=O)cc1`: 1.49 µM; for `COc1ccc(CN(C)S(=O)(=O)c2nnc(NC(=O)c3cccc(C)c3)s2)cc1OC`: 6.89 µM; for `O=C(O)CSc1cc(NS(=O)(=O)c2cccc([N+](=O)[O-])c2)c2ccccc2c1O`: 1.34 µM.

In the case of `[O-]/[N+](=C\c1ccccc1)c1ccc(Br)cc1`, the IC50 was 0.84 µM. Regarding `Cc1nc(COC(=O)c2cc(O)c3ccccc3c2O)cs1`, the IC50 was 3.52 µM.

For `Cc1cc(C)c(S(=O)(=O)Nc2cc(SCC(=O)O)c(O)c3ccccc23)cc1C`, the 50% inhibitory concentration (IC50) is 1.19 µM. `O=C(Cn1sc2ccccc2c1=O)Nc1ccc(Br)cc1`: the IC50 is 5.16 µM. Next, `CCc1c(C(=O)Nc2ccccc2)c(C)[nH]c(=S)c1C#N`: “inactive”; `[O-][N+](=Cc1ccccc1)c1ccc(Cl)cc1`: 3.34 µM; `CCN(CC)c1ccc(C(=C2C=CC(=[N+](CC)CC)C=C2)c2ccccc2)cc1`: 11.7 µM. Next, `O=C(CCSCCC(=O)NN=Cc1ccccc1)NN=Cc1ccccc1`: 7.76 µM.
